In US20180249707A1, “METHOD OF CONTROLLING ALGAE IN A BODY OF WATER” (priority 2013, published 2018):

Tested on: M. aeruginosa UTEX 2385
Assay: MIC 96-well microtiter plate assay in BG-11, 10 days
Assay type: cell-based, Microcystis aeruginosa
Settings: for In vivo chlorophyll a of M. aeruginosa: 10 days, initial 0.1 ug/L
Protocol: MICs for the samples against M. aeruginosa were determined in a standard 96-well microtiter plate assay in BG-11 with a starting inoculum of ˜1×10^5 cells/mL. Algae plates were incubated for 10 days. MIC concentrations were determined visually, in vivo chlorophyll a was determined fluorometrically, and cell density was determined via direct counting. Samples were tested in duplicate.

CCCCCCCCCCCCN.Cl [1-dodecylammonium chloride]
In vivo chlorophyll a of M. aeruginosa (0.031 active ppm): 7.20 µg/L | In vivo chlorophyll a of M. aeruginosa (0.063 active ppm): 4.65 µg/L | In vivo chlorophyll a of M. aeruginosa (0.125 active ppm): 2.05 µg/L | In vivo chlorophyll a of M. aeruginosa (0.25 active ppm): 0.15 µg/L | In vivo chlorophyll a of M. aeruginosa (0.5 active ppm): 0.00 µg/L | MIC (Microcystis aeruginosa, UTEX2385, 240 h, determined visually, 10 days incubation, read-out: MIC values per individual sample, M. aeruginosa): 0.25 µg/mL
